Source: patent US10030020B2, “Spirocycle compounds and methods of making and using same” (Abide Therapeutics, Inc., priority 2016, dated 2018)
Where two headings read alike, the source gives them in different places.

Columns and labels:
[1] = biological target: MAGL (Homo sapiens (Human), UniProt Q99685); experiment: In vitro competitive activity-based protein profiling (human prefrontal cortex or cell membrane fractions; hMAGL expressed in HEK293T cells); assay type: biochemical
Description: In Vitro Competitive Activity-Based Protein Profiling (Human).
Proteomes (human prefrontal cortex or cell membrane fractions) (50 μL, 1.0-2.0 mg/mL total protein concentration) were preincubated with varying concentrations of inhibitors at 37° C. After 30 min, FP—Rh or JW912 (1.0 μL, 50 μM in DMSO) was added and the mixture was incubated for another 30 min at room temperature. Reactions were quenched with SDS loading buffer (15 μL-4×) and run on SDS-PAGE.
Recombinant Expression of Human MAGL in HEK293T Cells.
Cell lysates were diluted with mock proteomes for use in competitive ABPP experiments.

[2] = biological target: T1, ABHD6 (Mus musculus (Mouse), UniProt Q8R2Y0); experiment: Mouse brain proteomes from inhibitor treated mice (oral gavage, sacrificed 4 h after administration, ABPP analysis), ABHD6; assay type: in vivo, mouse (C57Bl/6J); conditions: 5 mg/kg oral gavage
T1 sequence (Q8R2Y0 whole entry): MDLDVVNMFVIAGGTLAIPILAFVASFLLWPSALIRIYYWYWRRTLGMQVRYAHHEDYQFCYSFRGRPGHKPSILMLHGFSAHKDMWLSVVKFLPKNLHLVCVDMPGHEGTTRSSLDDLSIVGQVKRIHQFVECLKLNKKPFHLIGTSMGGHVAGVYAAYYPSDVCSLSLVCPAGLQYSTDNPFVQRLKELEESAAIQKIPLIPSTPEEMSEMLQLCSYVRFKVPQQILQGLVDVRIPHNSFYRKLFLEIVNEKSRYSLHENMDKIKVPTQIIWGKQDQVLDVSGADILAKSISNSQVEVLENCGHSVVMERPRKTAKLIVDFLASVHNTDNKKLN
Procedure, shortened: (§1)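 Values give % inhibition in brain after a 5 mg/kg oral gavage dose to wild-type C57Bl/6J mice, with vehicle e.g. PEG400/Ethanol/PBS (7/2/1). Animals were killed 4 h post-dose and brain proteome activity was read by ABPP.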

[3] = biological target: T2, MAGL (Mus musculus (Mouse), UniProt O35678); experiment: Mouse brain proteomes from inhibitor treated mice (oral gavage, sacrificed 4 h after administration, ABPP analysis); assay type: in vivo, mouse (C57Bl/6J); conditions: 5 mg/kg oral gavage
T2 sequence (O35678 whole entry): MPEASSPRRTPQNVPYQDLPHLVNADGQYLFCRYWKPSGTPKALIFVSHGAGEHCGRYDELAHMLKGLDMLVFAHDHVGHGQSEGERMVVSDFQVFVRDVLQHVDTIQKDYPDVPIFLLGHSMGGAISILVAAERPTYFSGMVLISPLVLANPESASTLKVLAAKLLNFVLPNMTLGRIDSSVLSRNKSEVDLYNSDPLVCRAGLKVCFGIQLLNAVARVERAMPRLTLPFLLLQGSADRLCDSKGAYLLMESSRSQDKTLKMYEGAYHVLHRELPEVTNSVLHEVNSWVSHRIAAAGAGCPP
Procedure, shortened: as §1

[4] = biological target: T1, ABHD6; experiment: In vitro competitive activity-based protein profiling (mouse brain membrane fraction or cell lysates), ABHD6 band; assay type: biochemical; conditions: for inhibition at 1 µM: read-out: ABHD6 % Inh 1 μM (mouse); for IC50: competitive ABPP
Procedure, shortened: (§2)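 Residual hydrolase activity was measured as gel band fluorescence after FP-Rh labelling (30 min, 37° C) of proteomes pretreated 30 min at 37° C with inhibitor.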

[5] = biological target: T3, FAAH (Mus musculus (Mouse), UniProt O08914); experiment: In vitro competitive activity-based protein profiling (mouse brain membrane fraction or cell lysates), FAAH band; assay type: biochemical; conditions: for inhibition at 1 µM: read-out: FAAH % Inh 1 μM (mouse); for IC50: competitive ABPP
T3 sequence (O08914 whole entry): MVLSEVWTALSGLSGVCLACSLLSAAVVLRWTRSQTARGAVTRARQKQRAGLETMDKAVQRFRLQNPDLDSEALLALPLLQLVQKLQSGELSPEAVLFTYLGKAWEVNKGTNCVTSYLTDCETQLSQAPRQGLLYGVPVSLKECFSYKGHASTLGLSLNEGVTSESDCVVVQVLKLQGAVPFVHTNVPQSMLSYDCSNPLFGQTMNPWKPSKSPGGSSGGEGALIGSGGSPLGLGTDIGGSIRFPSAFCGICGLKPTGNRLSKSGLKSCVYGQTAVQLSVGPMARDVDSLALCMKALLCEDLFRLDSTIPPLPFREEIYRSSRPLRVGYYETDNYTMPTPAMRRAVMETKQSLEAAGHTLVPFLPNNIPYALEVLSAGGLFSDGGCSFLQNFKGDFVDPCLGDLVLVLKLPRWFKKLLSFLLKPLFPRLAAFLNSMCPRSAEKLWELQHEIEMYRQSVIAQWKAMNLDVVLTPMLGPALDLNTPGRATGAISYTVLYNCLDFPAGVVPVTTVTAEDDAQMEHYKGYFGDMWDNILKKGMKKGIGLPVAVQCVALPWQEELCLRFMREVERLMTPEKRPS
Procedure, shortened: as §2

[6] = biological target: T2, MAGL; experiment: In vitro competitive activity-based protein profiling (mouse brain membrane fraction or cell lysates), MAGL band; assay type: biochemical; conditions: for inhibition at 1 µM: read-out: MAGL % Inh 1 μM (mouse); for IC50: competitive ABPP
Description: In Vitro Competitive Activity-Based Protein Profiling.
Proteomes (mouse brain membrane fraction or cell lysates) (50 μL, 1.0 mg/mL total protein concentration) were preincubated with varying concentrations of inhibitors at 37° C. After 30 min, FP—Rh (1.0 μL, 50 μM in DMSO) was added and the mixture was incubated for another 30 min at 37° C. Reactions were quenched with SDS loading buffer (50 μL-4×) and run on SDS-PAGE.

[7] = biological target: T3, FAAH; experiment: Mouse brain proteomes from inhibitor treated mice (oral gavage, sacrificed 4 h after administration, ABPP analysis), FAAH; assay type: in vivo, mouse (C57Bl/6J); conditions: 5 mg/kg oral gavage
Procedure, shortened: as §1

[8] = human proteome, competitive ABPP

Chain of MAGL (Homo sapiens (Human), UniProt Q99685) (Q99685 whole entry): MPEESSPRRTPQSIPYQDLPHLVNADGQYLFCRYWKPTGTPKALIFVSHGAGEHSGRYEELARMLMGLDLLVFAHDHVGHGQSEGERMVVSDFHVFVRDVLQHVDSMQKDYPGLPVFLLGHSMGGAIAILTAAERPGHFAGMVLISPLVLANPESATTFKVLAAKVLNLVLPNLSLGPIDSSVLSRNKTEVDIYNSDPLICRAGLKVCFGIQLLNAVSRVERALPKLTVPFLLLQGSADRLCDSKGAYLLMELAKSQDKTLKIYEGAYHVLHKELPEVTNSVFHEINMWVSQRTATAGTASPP

Row | SMILES | IC50 ([1]; human) [nM] | inhibition at 1 µM ([4]; mouse) [%] | inhibition at 1 µM ([5]; mouse) [%] | inhibition at 1 µM ([6]; mouse) [%] | also measured
1 | CN(C)C(=O)C1CCN(c2cc(C(F)(F)F)ccc2CN2CCCC23CCN(C(=O)OC(C(F)(F)F)C(F)(F)F)CC3)CC1 [Example 16, 1,1,1,3,3,3-Hexafluoropropan-2-yl 1-(2-(4-(dimethylcarbamoyl)piperidin-1-yl)-4-(trifluoromethyl)benzyl)-1,8-diazaspiro[4.5]decane-8-carboxylate] | – | – | – | – | IC50 [1, 8]: < 100 nM; ABHD6 % Inh 5 mg/kg (mouse) [2]: # (# is <25%); MAGL % Inh 5 mg/kg (mouse) [3]: # (# is <25%); inhibition at 1 µM ([4]; mouse proteome): < 25%; IC50 ([4]; mouse proteome): > 1000 nM; inhibition at 1 µM ([5]; mouse proteome): < 25%; IC50 ([5]; mouse proteome): > 1000 nM; inhibition at 1 µM ([6]; mouse proteome): > 75%; IC50 ([6]; mouse proteome): < 100 nM; FAAH % Inh 5 mg/kg (mouse) [7]: # (# is <25%)
2 | O=C(OC(C(F)(F)F)C(F)(F)F)N1CCC2(CCCN2Cc2ccc(C(F)(F)F)cc2N2CCN(CCF)CC2)CC1 [Example 20, 1,1,1,3,3,3-Hexafluoropropan-2-yl 1-(2-(4-(2-fluoroethyl)piperazin-1-yl)-4-(trifluoromethyl)benzyl)-1,8-diazaspiro[4.5]decane-8-carboxylate] | – | – | – | – | IC50 [1, 8]: < 100 nM; ABHD6 % Inh 5 mg/kg (mouse) [2]: # (# is <25%); MAGL % Inh 5 mg/kg (mouse) [3]: ## (## is equal to or greater than 25% but less than 75%); IC50 ([4]; mouse proteome): > 1000 nM; IC50 ([5]; mouse proteome): > 1000 nM; IC50 ([6]; mouse proteome): < 100 nM; FAAH % Inh 5 mg/kg (mouse) [7]: # (# is <25%)
3 | CN1CCCc2ccc(CN3CCCC34CCN(C(=O)OC(C(F)(F)F)C(F)(F)F)CC4)cc21 [Example 68, 1,1,1,3,3,3-Hexafluoropropan-2-yl 1-((1-methyl-1,2,3,4-tetrahydroquinolin-7-yl)methyl)-1,8-diazaspiro[4.5]decane-8-carboxylate] | – | – | – | – | IC50 [1, 8]: < 100 nM; ABHD6 % Inh 5 mg/kg (mouse) [2]: # (# is <25%); MAGL % Inh 5 mg/kg (mouse) [3]: ### (### is ≥75%); inhibition at 1 µM ([4]; mouse proteome): < 25%; IC50 ([4]; mouse proteome): > 1000 nM; inhibition at 1 µM ([5]; mouse proteome): < 25%; IC50 ([5]; mouse proteome): > 1000 nM; inhibition at 1 µM ([6]; mouse proteome): > 75%; IC50 ([6]; mouse proteome): < 100 nM; FAAH % Inh 5 mg/kg (mouse) [7]: # (# is <25%)
4 | CC1(C(=O)O)CCN(c2cc(CN3CCC4(CCN(C(=O)OC(C(F)(F)F)C(F)(F)F)CC4)C3)cc(C(F)(F)F)c2)C1 (stereo not shown) [Example 229] | < 100 | ≥ 75 | < 25 | > 75 | –
5 | O=C(O)C1CCN(c2cc(Cl)cc(CN3CCC4(CCN(C(=O)OC(C(F)(F)F)C(F)(F)F)CC4)C3)c2)CC1 [Example 232] | < 100 | 25 to 75 | < 25 | > 75 | –
6 | O=C(O)C1CCN(c2cc(F)cc(CN3CCC4(CCN(C(=O)OC(C(F)(F)F)C(F)(F)F)CC4)C3)c2)CC1 [Example 233] | < 100 | 25 to 75 | < 25 | > 75 | –
7 | O=C(O)C1CCN(c2cc(CN3CCC4(CCN(C(=O)OC(C(F)(F)F)C(F)(F)F)CC4)C3)ccc2C(F)(F)F)CC1 [Example 234] | < 100 | ≥ 75 | < 25 | > 75 | –
8 | O=C(O)C1CCN(Cc2cc(C(F)(F)F)ccc2CN2CCC3(CCN(C(=O)OC(C(F)(F)F)C(F)(F)F)CC3)C2)CC1 [Example 239] | < 100 | < 25 | < 25 | > 75 | –
9 | O=C(O)C1CCN(c2cc(S(F)(F)(F)(F)F)ccc2CN2CCC3(CCN(C(=O)OC(C(F)(F)F)C(F)(F)F)CC3)C2)CC1 [Example 241] | < 100 | ≥ 75 | < 25 | > 75 | –
10 | O=C(O)C1CCN(Cc2cc(CN3CCC4(CCN(C(=O)OC(C(F)(F)F)C(F)(F)F)CC4)C3)cc(C(F)(F)F)c2)CC1 [Example 245] | < 100 | ≥ 75 | < 25 | > 75 | –
11 | O=C(O)C1CCN(Cc2ccc(CN3CCC4(CCN(C(=O)OC(C(F)(F)F)C(F)(F)F)CC4)C3)cc2C(F)(F)F)CC1 [Example 247] | < 100 | ≥ 75 | < 25 | > 75 | –
12 | CC1(C(=O)O)CN(c2cc(CN3CCC4(CCN(C(=O)OC(C(F)(F)F)C(F)(F)F)CC4)C3)cc(C(F)(F)F)c2)CCO1 (stereo not shown) [Example 252] | < 100 | ≥ 75 | < 25 | > 75 | –
13 | O=C(O)c1ccc(CN2CCC3(CCN(C(=O)OC(C(F)(F)F)C(F)(F)F)CC3)C2)cc1C(F)(F)F [Example 258] | > 1000 | ≥ 75 | < 25 | > 75 | –
14 | O=C(O)c1cc(C(F)(F)F)ccc1CN1CCCC12CCN(C(=O)OC(C(F)(F)F)C(F)(F)F)CC2 [Example 261] | < 100 | < 25 | < 25 | 25 to 75 | –
15 | O=C(O)C1CCN(c2cc(CN3CCCC34CCN(C(=O)OC(C(F)(F)F)C(F)(F)F)CC4)cc(S(F)(F)(F)(F)F)c2)CC1 [Example 263] | < 100 | 25 to 75 | < 25 | > 75 | –
16 | O=C(O)C1CCN(c2cc(CN3CCC4(CCN(C(=O)OC(C(F)(F)F)C(F)(F)F)CC4)C3)cc(S(F)(F)(F)(F)F)c2)CC1 [Example 264] | < 100 | ≥ 75 | < 25 | > 75 | –
17 | O=C(O)c1ccc(CN2CCCC23CCN(C(=O)OC(C(F)(F)F)C(F)(F)F)CC3)c(C(F)(F)F)c1 [Example 265] | < 100 | ≥ 75 | < 25 | > 75 | –
18 | NC(=O)C1CCN(C(=O)c2cc(C(F)(F)F)ccc2CN2CCCC23CCN(C(=O)OC(C(F)(F)F)C(F)(F)F)CC3)CC1 [Example 276] | < 100 | 25 to 75 | < 25 | > 75 | –
19 | O=C(O)C1CN(c2cc(CN3CCC4(CCN(C(=O)OC(C(F)(F)F)C(F)(F)F)CC4)C3)cc(C(F)(F)F)c2)CCO1 (stereo not shown) [Example 277] | < 100 | ≥ 75 | < 25 | > 75 | –
20 | O=C(O)C1COCCN1c1cc(CN2CCC3(CCN(C(=O)OC(C(F)(F)F)C(F)(F)F)CC3)C2)cc(C(F)(F)F)c1 (stereo not shown) [Example 278] | < 100 | ≥ 75 | < 25 | > 75 | –
21 | O=C(O)C1CCN(c2cc(CN3CCC4(CCN(C(=O)OC(C(F)(F)F)C(F)(F)F)CC4)C3)cc(C(F)(F)F)c2)CC1 [Example 279] | < 100 | ≥ 75 | < 25 | > 75 | –
22 | C#Cc1ccc(CN2CCCC23CCN(C(=O)OC(C(F)(F)F)C(F)(F)F)CC3)cc1 [Example 280] | < 100 | < 25 | < 25 | > 75 | –
